Laboratory results reported in patent US4731451A, “N-((2-oxo-3(2H)benzothiazolyl)methyl)-2-chloroacetanilides” (Monsanto Company, priority 1980, dated 1988).

Assays:
Type in all cases: in vivo
[1] = system: Crabgrass; assay: Pre-emergent herbicidal activity (Table III)
Outline: (§1)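 Pre-emergence, soil-incorporated cover layer: known amount of test compound (solvent or wettable powder) mixed into fill soil over seeded pans; greenhouse, bottom-watered; fixed-scale percent-injury rating at ~2-3 wk.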

[2] = system: Rice; assay: Pre-emergent herbicidal activity (Table III)
Outline: as §1

[3] = system: Velvetleaf; assay: Pre-emergent herbicidal activity (Table II); conditions: 2-3 weeks
Outline: (§2)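 Pre-emergence soil incorporation: compound (solvent or wettable powder suspension) mixed into cover soil over seeds/propagules; greenhouse, subirrigation; percent injury scored on fixed scale at ~2-3 wk after seeding.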

[4] = system: Downy Brome; assay: Pre-emergent herbicidal activity (Table II); conditions: 2-3 weeks
Outline: as §2

[5] = system: Quackgrass; assay: Pre-emergent herbicidal activity (Table II); conditions: 2-3 weeks
Outline: as §2

[6] = system: Lambsquarters; assay: Pre-emergent herbicidal activity (Table II); conditions: 2-3 weeks
Outline: as §2

[7] = system: Smartweed; assay: Pre-emergent herbicidal activity (Table II); conditions: 2-3 weeks
Outline: as §2

[8] = system: Barnyardgrass; assay: Pre-emergent herbicidal activity (Table II); conditions: 2-3 weeks
Outline: as §2

[9] = system: Johnsongrass; assay: Pre-emergent herbicidal activity (Table II); conditions: 2-3 weeks
Outline: as §2

[10] = system: Morningglory; assay: Pre-emergent herbicidal activity (Table II); conditions: 2-3 weeks
Outline: as §2

[11] = system: Cocklebur; assay: Pre-emergent herbicidal activity (Table II); conditions: 2-3 weeks
Outline: as §2

[12] = system: Canada Thistle; assay: Pre-emergent herbicidal activity (Table II); conditions: 2-3 weeks
Outline: as §2

[13] = system: Yellow Nutsedge; assay: Pre-emergent herbicidal activity (Table II); conditions: 2-3 weeks
Outline: as §2
Note: ranges in brackets are in %.

## CC1=C(N(Cn2c(=O)sc3ccccc32)C(=O)CCl)C(C)CCC1 (stereo not shown) [Example 1, N-(2,6-dimethyl-1-cyclohexen-1-yl)-N-[(2-oxo-3(2H)-benzothiazolyl)methyl]-2-chloroacetamide]
[1]; 0.0056 kg/ha
  Herbicidal rating: 3 (75-100)
[1]; 0.0112 kg/ha
  Herbicidal rating: 2 (50-74)
[1]; 0.056 kg/ha
  Herbicidal rating: 3 (75-100)
[1]; 0.28 kg/ha
  Herbicidal rating: 3 (75-100)
[1]; 1.12 kg/ha
  Herbicidal rating: 3 (75-100)
[1]; 5.6 kg/ha
  Herbicidal rating: 3 (75-100)
[2]; 0.0056 kg/ha
  Herbicidal rating: 1 (25-49)
[2]; 0.0112 kg/ha
  Herbicidal rating: 1 (25-49)
[2]; 0.056 kg/ha
  Herbicidal rating: 0 (0-24)
[2]; 0.28 kg/ha
  Herbicidal rating: 2 (50-74)
[2]; 1.12 kg/ha
  Herbicidal rating: 2 (50-74)
[2]; 5.6 kg/ha
  Herbicidal rating: 2 (50-74)
[3]; 5.6 kg/ha
  Herbicidal rating: 0 (0-24)
[3]; 11.0 kg/ha
  Herbicidal rating: 0 (0-24)
[4]; 5.6 kg/ha
  Herbicidal rating: 2 (50-74)
[4]; 11.0 kg/ha
  Herbicidal rating: 2 (50-74)
[5]; 5.6 kg/ha
  Herbicidal rating: 2 (50-74)
[5]; 11.0 kg/ha
  Herbicidal rating: 2 (50-74)
[6]; 5.6 kg/ha
  Herbicidal rating: 1 (25-49)
[6]; 11.0 kg/ha
  Herbicidal rating: 0 (0-24)
[7]; 5.6 kg/ha
  Herbicidal rating: 1 (25-49)
[7]; 11.0 kg/ha
  Herbicidal rating: 3 (75-100)
[8]; 5.6 kg/ha
  Herbicidal rating: 3 (75-100)
[8]; 11.0 kg/ha
  Herbicidal rating: 3 (75-100)
[9]; 5.6 kg/ha
  Herbicidal rating: 0 (0-24)
[9]; 11.0 kg/ha
  Herbicidal rating: 3 (75-100)
[10]; 5.6 kg/ha
  Herbicidal rating: 2 (50-74)
[10]; 11.0 kg/ha
  Herbicidal rating: 2 (50-74)
[11]; 5.6 kg/ha
  Herbicidal rating: 1 (25-49)
[11]; 11.0 kg/ha
  Herbicidal rating: 0 (0-24)
[12]; 5.6 kg/ha
  Herbicidal rating: 0 (0-24)
[12]; 11.0 kg/ha
  Herbicidal rating: 0 (0-24)
[13]; 5.6 kg/ha
  Herbicidal rating: 0 (0-24)
[13]; 11.0 kg/ha
  Herbicidal rating: 2 (50-74)
